Holding throughout (format): in vivo
The test system of test [1] is Blast (Pyricularia oryzae). Conditions: granules water-applied 7 days before inoculation.
Test [2] concerns Helminthosporium leaf spot (Cochliobolus miyabeanus). Put plainly: Preventive effect by application against Helminthosporium leaf spot (foliar spray). The note with it: foliar spray before inoculation, six-leave-stage rice.
Test [3] relates to Sheath blight (Rhizoctonia solani). In words: Preventive effect by application against Sheath blight (foliar spray). Conditions: foliar spray before inoculation, ten-leave-stage rice. The method, then: Preventive Effect by Application Against Sheat Blight (Rhizoctonia solani)
The wettable powders prepared according to the Formulation Examples which were diluted with water to a predetermined concentrations were sprayed to the stems and leaves of ten-leave-stage of rice plant (Kin-maze) cultivated in pots under flooding. After air-drying, the fungous nucleiof Sheath blight (Rhizoctonia solani) was inoculated at the root of the plant. After that, the plant was allowed to stand under humid conditions at 30° C. for one week, and then, the number of the disease lesion was determined to obtain the preventive index according to the criterion of Test Example 1.

Test [4] concerns Blast (Pyricularia oryzae). Conditions: foliar spray before inoculation, rice plant (Kin-maze).
In test [5] the test system is Blast (Pyricularia oryzae). The note with it: sprayed one day after inoculation.
Test [6] has as its system Sheath blight (Rhizoctonia solani). In words: Preventive effect by paddy water application against Sheath blight. Conditions: water-applied 7 days before inoculation. The method, then:
Preventive Effect by Paddy Water Application Against Sheath Blight (Rhizoctonia solani)
By using pots of 1/8000 are, the compounds prepared according to the Formulations Examples which were diluted with water to a predetermined concentration were water-applied to ten-leave-stage rice plant (Kin-maze) cultivated under flooding. The treated pots were allowed to stand in a greenhouse for seven days, and the fungus nuclei of Sheath blight (Rhizoctonia solani) was inoculated at the root of the plant. Then, the plant was allowed to stand under humid conditions at 30° C. for one week, and then, the number of the disease lesion was determined to obtain the preventive index according to the criterion of Test Example 1.

Read-outs that look alike come from different tables or passages of the source.

For `CO/C=C(/C(=O)OC)c1ccccc1Oc1cc(Oc2ccccc2C#N)ncn1` [Compound 13, methyl (E)-2-{2-[6-(2-cyanophenoxy)pyrimidin-4-yloxy]phenyl}-3-methoxy-acrylate], the Preventive index in test [1] (10 g/10a active ingredient), in test [2] (10 ppm active ingredient) and in test [3] (10 ppm active ingredient) was 3 (Preventive value 60 to 84%) in each case.
`CSC(=O)c1cccc2nnsc12` [Compound 24, S-methyl-benzo(1,2,3)-thiadiazole-7-carbothiolate]: the Preventive index in test [1] (50 g/10a active ingredient) is 3 (Preventive value 60 to 84%).
As to `CC(C)Oc1cccc(NC(=O)c2ccccc2C(F)(F)F)c1` [Compound 1, α,α,α-trifluoro-3′-isopropoxy-O-toluanilide], the Preventive index in test [4] (500 ppm active ingredient) was 0; in test [1] (200 g/10a active ingredient), 0; in test [5] (200 ppm active ingredient), 0; in test [3] (10 ppm active ingredient) it was 3 (Preventive value 60 to 84%).
Turning to `Cc1nc(C(F)(F)F)c(C(=O)Nc2c(Br)cc(OC(F)(F)F)cc2Br)s1` [Compound 3, N-(2,6-dibromo-4-trifluoromethoxyphenyl)-2-methyl-4-trifluoromethylthiazole-5-carboxamide], the Preventive index in test [4] (500 ppm active ingredient) is reported as 0; in test [3] (10 ppm active ingredient), 3 (Preventive value 60 to 84%).
Turning to `CC(Oc1ccc(Cl)cc1Cl)C(=O)NC(C)(C#N)C(C)C` (stereo not shown) [Compound A, N-(1-cyano-1,2-dimethylpropyl)-2-(2,4-dichlorophenoxy)propanamide], the Preventive index in test [1] (10 g/10a active ingredient) is recorded as 3 (Preventive value 60 to 84%); in test [2] (200 ppm active ingredient) it was 0; in test [3] (200 ppm active ingredient), 0; in test [6] (200 g/10a active ingredient), 0.
For the compound `C/C(=N/Nc1nc(C)cc(C)n1)c1ccccc1C` [Compound 11, (Z)-2′-methylacetophenone 4,6-dimethylpyrimidin-2-ylhydrazone], the Preventive index in test [2] (10 ppm active ingredient) and in test [6] (10 g/10a active ingredient) was 3 (Preventive value 60 to 84%) in each case.
For `C[C@H]1O[C@H](O[C@H]2[C@H](O)[C@@H](O)[C@@H](O)[C@H](O)[C@@H]2O)[C@@H](N)C[C@@H]1NC(=N)C(=O)O` [Compound 19, kasugamycin], in test [5] (20 ppm active ingredient), the Preventive index is reported as 4 (Preventive value 85 to 94%).
Regarding `CC(C)NC(=O)N1CC(=O)N(c2cc(Cl)cc(Cl)c2)C1=O` [Compound 8, 3-(3,5-dichlorophenyl)-N-isopropyl-2,4-dioxoimidazolidine-1-carboxamide], the Preventive index in test [2] (10 ppm active ingredient) and in test [6] (10 g/10a active ingredient) was 3 (Preventive value 60 to 84%) throughout.
In the case of `CCOP(=O)(Sc1ccccc1)Sc1ccccc1` [Compound 16, O-ethyl-S,S-diphenyldithiophosphate], the Preventive index in test [4] (50 ppm active ingredient) is 3 (Preventive value 60 to 84%).
Take `CNC(=O)/C(=N/OC)c1ccccc1Oc1ccccc1` [Compound 14, 2-methoxyimino-N-methyl-2-(2-phenoxy)phenyl-acetamide]: the Preventive index in test [1] (50 g/10a active ingredient), in test [2] (50 ppm active ingredient) and in test [3] (50 ppm active ingredient) was 3 (Preventive value 60 to 84%) throughout.
On to `Cc1c(Cl)cc(-c2ccc(=O)[nH]n2)cc1Cl` [Compound 7, 6-(3,5-dichloro-4-methylphenyl)-3(2H)-pyridazinone], for which the Preventive index in test [3] (10 ppm active ingredient) came to 2.
In the case of `OCC1=C[C@H](N[C@H]2C[C@H](CO)[C@@H](O[C@@H]3O[C@H](CO)[C@@H](O)[C@H](O)[C@H]3O)[C@H](O)[C@H]2O)[C@H](O)[C@@H](O)[C@@H]1O` [Compound 5, validamycin], the Preventive index in test [4] (500 ppm active ingredient) was 0; in test [3] (10 ppm active ingredient), 3 (Preventive value 60 to 84%).
For `O=C1CCc2cccc3c2N1CC3` [Compound 22, 1,2,5,6-tetrahydropyrrolo(3,2,1-i,j)quinolin-4-one], the Preventive index in test [1] (10 g/10a active ingredient) was 4 (Preventive value 85 to 94%).
In the case of `CCCCC(O)(Cn1cncn1)c1ccc(Cl)cc1Cl` (racemic) [Compound 10, (RS)-2-(2,4-dichlorophenyl)-1-(1H-1,2,4-triazol-1-yl)hexan-2-ol], the Preventive index in test [2] (10 ppm active ingredient) and in test [6] (10 g/10a active ingredient) was 3 (Preventive value 60 to 84%) in each case.
Regarding `C=CCOC1=NS(=O)(=O)c2ccccc21` [Compound 23, 3-allyloxy-1,2-benzoisothiazole-1,1-dioxide], the Preventive index in test [1] (50 g/10a active ingredient) is listed as 3 (Preventive value 60 to 84%).
Turning to `O=C(Nc1ccccc1)N(Cc1ccc(Cl)cc1)C1CCCC1` [Compound 6, 1-(4-chlorobenzyl)-1-cyclopentyl-3-phenylurea], the Preventive index in test [4] (500 ppm active ingredient) is given as 0; in test [3] (10 ppm active ingredient), 3 (Preventive value 60 to 84%).
On to `Cc1nn(C)c(Cl)c1C(=O)Nc1cccc2c1COC2(C)C` [Compound 4, 5-chloro-1,3-dimethyl-N-(1,1-dimethyl-2-oxa-4-indanyl)pyrazole-4-carboxamide], for which the Preventive index in test [1] (200 g/10a active ingredient) is recorded as 0.
Turning to `CC(=O)O.CC(=O)O.CC(=O)O.N=C(N)NCCCCCCCCNCCCCCCCCNC(=N)N` [Compound 12, 1,1′-iminodi(octamethylene)diguanidinium triacetate], the Preventive index in test [2] (10 ppm active ingredient) and in test [6] (10 g/10a active ingredient) was 3 (Preventive value 60 to 84%) each time.
As for `CC(NC(=O)C(C#N)C(C)(C)C)c1ccc(Cl)cc1Cl` (stereo not shown) [Compound 21, N-[1-(2,4-dichlorophenyl)ethyl]-2-cyano-3,3-dimethylbuthaneamide], in test [4] (5 ppm active ingredient), the Preventive index is reported as 4 (Preventive value 85 to 94%).
Consider `CCCCC(C#N)(Cn1cncn1)c1ccc(Cl)cc1` (stereo not shown) [Compound 9, 2-p-chlorophenyl-2-(1H-1,2,4-triazol-1-ylmethyl)hexanenitrile], for which the Preventive index in test [2] (10 ppm active ingredient) and in test [6] (10 g/10a active ingredient) was 3 (Preventive value 60 to 84%) each time.
Consider `Cc1ccccc1C(=O)Nc1cccc(OC(C)C)c1` [Compound 2, 3′-isopropoxy-2-methylbenzanilide], for which the Preventive index was found to be 0 in test [4] (500 ppm active ingredient) and 2 in test [3] (10 ppm active ingredient).

For the origin of these results see US6469059B1, “Fungicidal composition and method for disease control of paddy-rice plants” (BASF Aktiengesellschaft, priority 1999, dated 2002).
